Consider 21 molecules from US8975406B2, “Compound useful for the treatment of degenerative and inflammatory diseases” (Galapagos N.V., priority 2011, dated 2015).

Assay [1] addresses T1, Recombinant human TYK2 catalytic domain (Homo sapiens, UniProt P29597).
T1 construct: catalytic domain (amino acids 871-1187; catalog number 08-147); GST; purchased Carna Biosciences 08-147
T1 sequence (P29597 871-1187): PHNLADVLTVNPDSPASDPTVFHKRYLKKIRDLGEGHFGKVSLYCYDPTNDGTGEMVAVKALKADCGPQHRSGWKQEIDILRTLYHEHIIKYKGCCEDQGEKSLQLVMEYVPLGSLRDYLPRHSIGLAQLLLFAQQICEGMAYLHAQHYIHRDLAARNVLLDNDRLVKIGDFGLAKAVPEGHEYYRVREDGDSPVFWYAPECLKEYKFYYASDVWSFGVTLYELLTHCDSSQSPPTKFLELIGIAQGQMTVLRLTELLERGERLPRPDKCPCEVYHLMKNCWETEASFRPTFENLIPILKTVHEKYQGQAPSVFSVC
Nature of the assay: TYK2 inhibition assay. The following applies: polyGT substrate, 33P-gamma-ATP filter assay, 0.1 μM ATP. Format: biochemical. As for the experimental part: Recombinant human TYK2 catalytic domain (amino acids 871-1187; catalog number 08-147) was purchased from Carna biosciences. 4 ng of TYK2 was incubated with 12.5 μg polyGT substrate (Sigma catalog number P0275) in kinase reaction buffer (25 mM Hepes pH 7.2, 50 mM NaCl, 0.5 mM EDTA, 1 mM DTT, 5 mM MnCl2, 10 mM MgCl2, 0.1% Brij-35, 0.1 μM non-radioactive ATP, 0.125 μCi ^33P-gamma-ATP (Perkin Elmer, catalog number NEG602K001MC) final concentrations) with or without 5 μL containing test compound or vehicle (DMSO, 1% final concentration), in a total volume of 25 μL, in a polypropylene 96-well plate (Greiner, V-bottom). After 90 min at 30° C., reactions were stopped by adding 25 μL/well of 150 mM phosphoric acid. All of the terminated kinase reaction was transferred to prewashed (75 mM phosphoric acid) 96 well filter plates (Perkin Elmer catalog number 6005177) using a cell harvester (Perkin Elmer). Plates were washed 6 times with 300 μL per well of a 75 mM phosphoric acid solution and the bottom of the plates was sealed. 40 μL/well of Microscint-20 was added, the top of the plates was sealed and readout was performed using the Topcount (Perkin Elmer). Kinase activity was calculated by subtracting counts per min (cpm) obtained in the presence of a positive control inhibitor (10 μM staurosporine) from cpm obtained in the presence of vehicle. The ability of a test compound to inhibit this activity was determined as: Percentage inhibition=((cpm determined for sample with test compound present−cpm determined for sample with positive control inhibitor)divided by(cpm determined in the presence of vehicle−cpm determined for sample with positive control inhibitor))*100.
Dose dilution series were prepared for the compounds enabling the testing of dose-response effects in the TYK2 assay and the calculation of the IC50 for each compound. Each compound was routinely tested at concentration of 20 μM followed by a ⅓ serial dilution, 8 points (20 μM-6.67 μM-2.22 μM-740 nM-247 nM-82 nM-27 nM-9 nM) in a final concentration of 1% DMSO. When potency of compound series increased, more dilutions were prepared and/or the top concentration was lowered (e.g. 5 μM, 1 μM).

Assay [2] concerns JAK-STAT signalling in HeLa cells. Nature of the assay: JAK-STAT signalling assay (pSTAT1(2)-luciferase reporter, OSM-triggered HeLa cells). Format: cell-based. The following applies: human OSM 33 ng/mL. As for the experimental part:
HeLa cells were maintained in Dulbecco's Modified Eagle's Medium (DMEM) containing 10% heat inactivated fetal calf serum, 100 U/mL penicillin and 100 μg/mL streptomycin. HeLa cells were used at 70% confluence for transfection. 20,000 cells in 87 μL cell culture medium were transiently transfected with 40 ng pSTAT1(2)-luciferase reporter (Panomics), 8 ng of LacZ reporter as internal control reporter and 52 ng of pBSK using 0.32 μL Jet-PEI (Polyplus) as transfection reagent per well in 96-well plate format. After overnight incubation at 37° C., 5% CO2, transfection medium was removed. 81 μL of DMEM+1.5% heat inactivated fetal calf serum was added. 9 μL compound at 10× concentration was added for 60 min and then 10 μL of human OSM (Peprotech) at 33 ng/mL final concentration.
All compounds were tested in duplicate starting from 20 μM followed by a ⅓ serial dilution, 8 doses in total (20 μM-6.6 μM-2.2 μM-740 nM-250 nM-82 nM-27 nM-9 nM) in a final concentration of 0.2% DMSO.
After overnight incubation at 37° C., 5% CO2 cells were lysed by adding 100 μL lysis buffer/well (PBS, 0.9 mM CaCl2, 0.5 mM MgCl2, 10% Trehalose, 0.05% Tergitol NP9, 0.3% BSA).
40 μL of cell lysate was used to read β-galactosidase activity by adding 180 μL β-Gal solution (30 μl ONPG 4 mg/mL+150 μL β-Galactosidase buffer (0.06 M Na2HPO4, 0.04 M NaH2PO4, 1 mM MgCl2)) for 20 min. The reaction was stopped by addition of 50 μL Na2CO3 1 M. Absorbance was read at 405 nm.
Luciferase activity was measured using 40 μL cell lysate plus 40 μL of Steadylite® as described by the manufacturer (Perkin Elmer), on the Envision (Perkin Elmer).
Omitting OSM was used as a positive control (100% inhibition). As negative control 0.5% DMSO (0% inhibition) was used. The positive and negative controls were used to calculate z′ and ‘percent inhibition’ (PIN) values. Percentage inhibition=((fluorescence determined in the presence of vehicle−fluorescence determined for sample with test compound present)divided by(fluorescence determined in the presence of vehicle−fluorescence determined for sample without trigger))*100.
PIN values were plotted for compounds tested in dose-response and EC50 values were derived.
Background: Reporter assays use an easily measured gene product as a stand-in for the process of interest.

The IC50 is the concentration at which inhibition is half-maximal. `COc1ccc(-c2cccn3nc(NC(=O)C4CC4)cc23)cc1` [Compound 1, N-(4-(4-methoxyphenyl)pyrazolo[1,5-a]pyridin-2-yl)cyclopropanecarboxamide]: the IC50 in assay [1] is 0.01 to 100 nM; in assay [2], > 1000 nM.
Take `O=C(Nc1cc2c(-c3ccc(OCc4ccccc4)cc3)cccn2n1)C1CC1` [Compound 2, N-(4-(4-(benzyloxy)phenyl)pyrazolo[1,5-a]pyridin-2-yl)cyclopropanecarboxamide]: the IC50 in assay [1] is 101 to 500 nM.
On to `O=C(Nc1cc2c(-c3ccc4c(ccn4Cc4ccccc4)c3)cccn2n1)C1CC1` [Compound 3, N-(4-(1-benzyl-1H-indol-5-yl)pyrazolo[1,5-a]pyridin-2-yl)cyclopropanecarboxamide], for which the IC50 in assay [1] is 101 to 500 nM; in assay [2] it was > 1000 nM.
For `O=C(Nc1cc2c(-c3ccc4[nH]ccc4c3)cccn2n1)C1CC1` [Compound 4, N-(4-(1H-indol-5-yl)pyrazolo[1,5-a]pyridin-2-yl)cyclopropanecarboxamide], the 50% inhibitory concentration (IC50) in assay [1] is 0.01 to 100 nM; in assay [2] it was > 1000 nM.
On the same counts, the results for `O=C(NCCc1ccccc1)c1ccc(-c2cccn3nc(NC(=O)C4CC4)cc23)cc1` [Compound 5, 4-(2-(cyclopropanecarboxamido)pyrazolo[1,5-a]pyridin-4-yl)-N-phenethylbenzamide] are 0.01 to 100 nM and 101 to 500 nM.
On the same counts, the results for `O=C(NCCOc1ccccc1)c1ccc(-c2cccn3nc(NC(=O)C4CC4)cc23)cc1` [Compound 6, 4-(2-(cyclopropanecarboxamido)pyrazolo[1,5-a]pyridin-4-yl)-N-(2-phenoxyethyl)benzamide] are 101 to 500 nM and 101 to 500 nM.
In the case of `COc1ccc(-c2cccn3nc(NC(=O)C4CC4)c(-c4ccccc4)c23)cc1` [Compound 7, N-(4-(4-methoxyphenyl)-3-phenylpyrazolo[1,5-a]pyridin-2-yl)cyclopropanecarboxamide], the IC50 in assay [1] is > 1000 nM.
For `O=C(Nc1cc2c(-c3ccc(OCc4cccnc4)cc3)cccn2n1)C1CC1` [Compound 8, N-(4-(4-(pyridin-3-ylmethoxy)phenyl)pyrazolo[1,5-a]pyridin-2-yl)cyclopropanecarboxamide], in assay [2], the IC50 is > 1000 nM.
For the molecule `N#Cc1ccc(COc2ccc(-c3cccn4nc(NC(=O)C5CC5)cc34)cc2)cn1` [Compound 9, N-(4-(4-((6-cyanopyridin-3-yl)methoxy)phenyl)pyrazolo[1,5-a]pyridin-2-yl)cyclopropanecarboxamide], the IC50 in assay [1] is 0.01 to 100 nM; in assay [2], 101 to 500 nM.
As for `O=C(Nc1cc2c(-c3ccc(CN4CCS(=O)(=O)CC4)cc3)cccn2n1)C1CC1` [Compound 10, Cyclopropanecarboxylic acid {4-[4-(1,1-dioxo-thiomorpholin-4-ylmethyl)-phenyl]-pyrazolo[1,5-a]pyridin-2-yl}-amide], the figures for the IC50 in assay [1] and in assay [2] were 0.01 to 100 nM and 101 to 500 nM, respectively.
On to `O=C(Nc1nn2cccc(-c3ccc(CN4CCS(=O)(=O)CC4)cc3)c2c1F)C1CC1` [Compound 11, Cyclopropanecarboxylic acid {4-[4-(1,1-dioxo-thiomorpholin-4-ylmethyl)-phenyl]-3-fluoro-pyrazolo[1,5-a]pyridin-2-yl}-amide], for which the IC50 in assay [1] is 0.01 to 100 nM; in assay [2], 501 to 1000 nM.
As to `O=C(Nc1nn2cccc(-c3ccc(CN4CCS(=O)(=O)CC4)cc3)c2c1Br)C1CC1` [Compound 12, Cyclopropanecarboxylic acid {4-[4-(1,1-dioxo-thiomorpholin-4-ylmethyl)-phenyl]-3-bromo-pyrazolo[1,5-a]pyridin-2-yl}-amide], the IC50 in assay [1] was 0.01 to 100 nM; in assay [2] it was > 1000 nM.
The corresponding values for `O=C(Nc1nn2cccc(-c3ccc(CN4CCS(=O)(=O)CC4)cc3)c2c1Cl)C1CC1` [Compound 13, Cyclopropanecarboxylic acid {4-[4-(1,1-dioxo-thiomorpholin-4-ylmethyl)-phenyl]-3-chloro-pyrazolo[1,5-a]pyridin-2-yl}-amide] are 0.01 to 100 nM and 501 to 1000 nM.
With `O=C(Nc1cc2c(-c3ccc(C(=O)N4CCCCC4)cc3)cccn2n1)C1CC1` [Compound 14, Cyclopropanecarboxylic acid {4-[4-(piperidine-1-carbonyl)-phenyl]-pyrazolo[1,5-a]pyridin-2-yl}-amide], the figures for the IC50 in assay [1] and in assay [2] were 0.01 to 100 nM and 101 to 500 nM, respectively.
Take `CS(=O)(=O)N1CCN(Cc2ccc(-c3cccn4nc(NC(=O)C5CC5)cc34)cc2)CC1` [Compound 15, N-(4-(4-((4-(methylsulfonyl)piperazin-1-yl)methyl)phenyl)pyrazolo[1,5-a]pyridin-2-yl)cyclopropanecarboxamide]: the results for the IC50 in assay [1] and in assay [2] were 0.01 to 100 nM and 101 to 500 nM, respectively.
On to `CS(=O)(=O)C1CCN(Cc2ccc(-c3cccn4nc(NC(=O)C5CC5)cc34)cc2)CC1` [Compound 17, N-(4-(4-((4-(methylsulfonyl)piperidin-1-yl)methyl)phenyl)pyrazolo[1,5-a]pyridin-2-yl)cyclopropanecarboxamide], for which the IC50 is 0.01 to 100 nM in assay [1] and 501 to 1000 nM in assay [2].
For the molecule `CC(=O)Nc1cc2c(-c3ccc(CN4CCN(CC(F)(F)F)CC4)c(F)c3)cccn2n1` [Compound 28, N-(4-(3-fluoro-4-((4-(2,2,2-trifluoroethyl)piperazin-1-yl)methyl)phenyl)pyrazolo[1,5-a]pyridin-2-yl)acetamide], the IC50 in assay [1] fell in the range of 101 to 500 nM.
As to `CC(=O)Nc1cc2c(-c3ccc(CC(=O)N4CCCCC4)cc3)cccn2n1` [Compound 35, N-(4-(4-(2-oxo-2-(piperidin-1-yl)ethyl)phenyl)pyrazolo[1,5-a]pyridin-2-yl)acetamide], in assay [1], the IC50 lay in the range of 0.01 to 100 nM.
As to `CC(=O)Nc1cc2c(-c3ccc(CC(=O)N4CCOCC4)cc3)cccn2n1` [Compound 36, N-(4-(4-(2-morpholino-2-oxoethyl)phenyl)pyrazolo[1,5-a]pyridin-2-yl)acetamide], the IC50 in assay [1] is 0.01 to 100 nM.
As for `CC(=O)Nc1cc2c(-c3ccc(CC(=O)N4COCC4(C)C)cc3)cccn2n1` [Compound 38, N-(4-(4-(2-(4,4-dimethyloxazolidin-3-yl)-2-oxoethyl)phenyl)pyrazolo[1,5-a]pyridin-2-yl)acetamide], the IC50 in assay [1] fell in the range of 101 to 500 nM.
Turning to `CC(c1ccc(-c2cccn3nc(NC(=O)C4CC4)cc23)cc1)N1CCN(S(C)(=O)=O)CC1` (stereo not shown) [Compound 43, N-(4-(4-(1-(4-(methylsulfonyl)piperazin-1-yl)ethyl)phenyl)pyrazolo[1,5-a]pyridin-2-yl)cyclopropanecarboxamide], the IC50 in assay [1] lay in the range of 0.01 to 100 nM.
